Laboratory results from patent publication US20050096360A1, “Inhibitors of semicarbazide-sensitive amine oxidase (SSAO) and VAP-1 mediated adhesion useful for treatment of diseases” (priority 2003, published 2005).
Counter-ions that a name gives are not always drawn.

Legend:
[1] = biological target: T1, SSAO (bovine plasma amine oxidase, PAO) (Bos taurus, UniProt Q29437); test: In vitro inhibition of SSAO activity, coupled colorimetric method; format: biochemical; conditions: 30 min preincubation, benzylamine substrate; read-out: SSAO Inhibitory Activity IC50
T1 construct: Bovine plasma amine oxidase (PAO) was purchased from Worthington Biochemical; purchased Worthington Biochemical (Lakewood, N.J.)
T1 sequence (Q29437 17-762): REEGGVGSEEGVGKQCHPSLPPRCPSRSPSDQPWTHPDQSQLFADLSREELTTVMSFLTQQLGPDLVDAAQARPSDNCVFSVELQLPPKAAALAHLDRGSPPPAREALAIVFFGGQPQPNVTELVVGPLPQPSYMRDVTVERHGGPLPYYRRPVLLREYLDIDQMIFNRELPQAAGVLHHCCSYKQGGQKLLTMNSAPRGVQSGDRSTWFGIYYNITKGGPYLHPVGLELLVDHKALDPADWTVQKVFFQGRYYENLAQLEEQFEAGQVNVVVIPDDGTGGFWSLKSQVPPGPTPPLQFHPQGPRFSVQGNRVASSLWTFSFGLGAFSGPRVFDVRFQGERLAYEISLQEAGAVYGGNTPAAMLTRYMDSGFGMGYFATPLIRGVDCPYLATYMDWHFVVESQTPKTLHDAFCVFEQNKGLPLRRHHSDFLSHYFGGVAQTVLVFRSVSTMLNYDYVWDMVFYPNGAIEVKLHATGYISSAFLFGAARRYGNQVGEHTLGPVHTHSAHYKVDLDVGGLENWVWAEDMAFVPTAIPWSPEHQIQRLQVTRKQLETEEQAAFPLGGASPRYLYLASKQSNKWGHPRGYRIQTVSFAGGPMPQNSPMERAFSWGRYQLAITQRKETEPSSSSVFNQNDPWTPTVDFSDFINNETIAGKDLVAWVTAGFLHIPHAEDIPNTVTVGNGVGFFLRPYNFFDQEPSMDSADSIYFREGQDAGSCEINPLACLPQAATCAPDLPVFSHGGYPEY
Experimental: SSAO activity was measured using the coupled colorimetric method essentially as described for monoamine oxidase and related enzymes (Holt A. et al. (1997) Anal. Biochem. 244:384). Bovine plasma amine oxidase (PAO) was purchased from Worthington Biochemical (Lakewood, N.J.) and used as a source of SSAO for activity measurements. The SSAO assay was performed in 96 well microtitre plates as follows. A pre-determined amount of inhibitor diluted in 0.2 M potassium phosphate buffer, pH 7.6, was added to each well, if required. The amount of inhibitor varied in each assay but was generally at a final concentration of between 10 nM and 10 μM. Controls lacked inhibitor. In order to study the effects of potential inhibitors 50 μl of inhibitor solution were preincubated for 30 min at 37° C. with 0.4 mU of PAO in an a total volume of 130 μl of 0.2 M potassium phosphate buffer pH 7.6. Assays were then started by addition of 20 μl 10 mM benzylamine substrate and incubated for 20 min at 37° C. The following reagents were then added to a final reaction volume of 200 μl, 50 μl of freshly made chromogenic solution containing […] vanillic acid (Sigma # V-2250), […] 4-aminoantipyrine (Sigma # A-4328) and 12 U/ml horseradish peroxidase (Sigma # P-8250) in order to cause a change of 0.5 OD A490 per hour. This was within the linear response range of the assay. The plates were incubated for 1 hr at 37° C. and the increase in absorbance, reflecting SSAO activity, was measured at 490 nm using a microplate spectrophotometer (Power Wave 40, Bio-Tek Inst.). Inhibition was presented as percent inhibition compared to control after correcting for background absorbance and IC50 values calculated using GraphPad Prism software.

SSAO = test: IC100 concentrations of SSAO inhibitors used in the adhesion assay; format: biochemical; conditions: FIG. 7 legend
Excerpt: FIG. 7 depicts the effect of blockage of SSAO/VAP-1 on binding between peripheral blood mononuclear cells (PBMCs) and high endothelial cells (HEC). FIG. 7A is a control experiment showing the effect of various compounds used for treatment on the adhesion of PBMCs to mock-transfected high endothelial cells; a non-treated control is included for comparison (MNT). FIG. 7B is a control experiment showing the effect of various compounds used for treatment on the adhesion of PBMCs to high endothelial cells transfected with VAP-1; a non-treated control is included for comparison (VNT).
(§1) These studies were repeated using the adhesion assay as described above to evaluate the inhibitors of the invention. Adhesion blockers used included an anti-human VAP-1 monoclonal antibody (Serotec, Oxford, UK), neuramidase (a sialidase, because SSAO/VAP-1 is a sialoglycoprotein; Sigma), and several function-blocking antibodies to rat adhesion molecules (CD31-PECAM, CD54-ICAM-1, […]-P Selectin). […] Antibodies (10 μg/ml) and neuramidase (5 mU) were incubated with the HECs for 30 min at 37° C.; excess antibody was washed away prior to the addition of the labeled PBMCs. Small-molecule inhibitors were pre-incubated the same way at IC100 concentrations, but the amounts present in the supernatant were not washed away to preserve the IC100 concentration during the adhesion step.

[2] = tested on: adhesion of human PBMCs to rat HEC transfected with full-length human SSAO/VAP-1; test: In vitro adhesion of PBMCs to SSAO/VAP-1-transfected high endothelial cells; format: cell-based; conditions: inhibitors at IC100 concentrations, antibody 10 μg/ml; 3 hr at 37° C.
Experimental: The studies in this Example were carried out in order to determine whether SSAO/VAP-1 transfected into endothelial cells retained the adhesion function and whether it played any role in the adhesion of freshly isolated human PBMCs to these cells. Moreover, the studies were also designed to determine whether blocking of SSAO/VAP-1 would have an impact on the level of adhesion between these two cell types. Adhesion assays were performed using cells labeled with the fluorescent dye Calcein-AM (Molecular Probes, OR, USA) as per the manufacturer's instructions. Briefly, rat lymph node high endothelial cells (HEC; isolation and culture was described in Ager, A. (1987) J. Cell Sci. 87: 133) were plated overnight in 96-well plates (2,000 cells/well). PBMCs (peripheral blood mononuclear cells) (1×10^7) were labeled with 1 ml of 10 μM Calcein-AM for 1 hr at 37° C., washed three times with RPMI, and added to the 96 well plates containing monolayers of HEC cells mock-transfected or transfected with full-length human SSAO/VAP-1 (60,000 PBMCs were plated per well containing 2,000 HEC cells). Adhesion was carried out for 3 hr at 37° C. Non-adherent cells were removed by washing three times with RPMI and fluorescence was measured in a fluorescence plate reader at an excitation wavelength of 485 nm and emission wavelength of 530 nm. Several controls were included, such as HEC cells and PBMCs (labeled and unlabeled) alone.
as §1

Work on `Cl.NNC/C(=C/F)c1ccccc1` [Example 10, (E)-1-fluoro-2-phenyl-3-hydrazinopropene Hydrochloride] yielded an IC50 [1] of 65 nM.

In the case of `C=C(CNN)c1ccc(F)cc1.Cl` [Example 8, N-[2-(4′-fluorophenyl)-allyl]-hydrazine Hydrochloride], the IC50 [1] is reported as 32 nM, the “IC100 (SSAO)” value (SSAO) is reported as 250 nM and the “number of PBMCs adherent to SSAO/VAP-1 transfected HECs” value [2] is reported as “reduced”.

For `C=C(CNN)c1ccccc1` [Example 2, Hydrochloride], the IC50 [1] was 35 nM, the “IC100 (SSAO)” value (SSAO) was 150 nM and the “number of PBMCs adherent to SSAO/VAP-1 transfected HECs” value [2] was “reduced”.
